We go through six molecules from ChEMBL document CHEMBL3585267, “Bioactivity of surface tethered Osteogenic Growth Peptide motifs” (2014).

The source made the active and inactive calls. The calls are words filed in the database; no cut-off is given here. Peptide text beside a SMILES is read from it.

Test [1] has as its system Mesenchymal stem cell. Description: Induction of osteogenesis of rabbit mesenchymal stem cells by alkaline phosphatase assay. The conditions noted are these: Oryctolagus cuniculus. It counts as functional.
Test [2] deals with Mesenchymal stem cell. Description: Effect on cell proliferation of rabbit mesenchymal stem cells incubated for 7 days by MTT assay. It is filed as functional. The conditions noted are these: Oryctolagus cuniculus.
The test system of test [3] is Mesenchymal stem cell. In words: Effect on cell morphology of rabbit mesenchymal stem cells incubated for 7 days by H and E staining method. It counts as functional. The conditions noted are these: Oryctolagus cuniculus.
A short description of test [4]: Reduction in cell proliferation of rabbit mesenchymal stem cells incubated for 7 days by MTT assay. It is filed as functional. The settings on record: Oryctolagus cuniculus.
The subject of test [5] is Mesenchymal stem cell. In words: Effect on cell proliferation of rabbit mesenchymal stem cells incubated for 3 days by MTT assay. It is filed as functional. The settings on record: Oryctolagus cuniculus.
Test [6] is described as follows: Reduction in cell proliferation of rabbit mesenchymal stem cells incubated for 5 days by MTT assay. It counts as functional. The conditions noted are these: Oryctolagus cuniculus.
Test [7] in a line: (§1) Increase in BMP2 mRNA expression in rabbit mesenchymal stem cells incubated for 14 days by qRT-PCR method relative to untreated control. It counts as functional, Oryctolagus cuniculus, Mesenchymal stem cell.
The test system of test [8] is Mesenchymal stem cell. Description: Increase in SPARC mRNA expression in rabbit mesenchymal stem cells incubated for 7 days by qRT-PCR method relative to untreated control. It counts as functional. The settings on record: Oryctolagus cuniculus.
The nature of test [9]: (§2) Increase in RUNX2 mRNA expression in rabbit mesenchymal stem cells incubated for 14 days by qRT-PCR method relative to untreated control. It is filed as functional, Oryctolagus cuniculus, Mesenchymal stem cell.
The nature of test [10]: Reduction in cell proliferation of rabbit mesenchymal stem cells incubated for 14 days by MTT assay. The settings on record: Oryctolagus cuniculus. It counts as functional.
Test [11] is described as follows: (§3) Increase in RUNX2 mRNA expression in rabbit mesenchymal stem cells incubated for 7 days by qRT-PCR method relative to untreated control. It counts as functional, Oryctolagus cuniculus, Mesenchymal stem cell.
Test [12] in a line: Increase in SPARC mRNA expression in rabbit mesenchymal stem cells incubated for 14 days by qRT-PCR method relative to untreated control. It counts as functional, Oryctolagus cuniculus, Mesenchymal stem cell.
Test [13] relates to Mesenchymal stem cell. Description: Effect on cell morphology of rabbit mesenchymal stem cells incubated for 3 days by phalloidin immunofluorescence staining method. It is filed as functional. The conditions noted are these: Oryctolagus cuniculus.
Test [14] is described as follows: (§4) Increase in BMP2 mRNA expression in rabbit mesenchymal stem cells incubated for 7 days by qRT-PCR method relative to untreated control. It is filed as functional, Oryctolagus cuniculus, Mesenchymal stem cell.
The test system of test [15] is Mesenchymal stem cell. Described as §1. The conditions noted are these: Oryctolagus cuniculus. It counts as functional.
In test [16] the test system is Mesenchymal stem cell. The test is described as §2. It counts as functional. The settings on record: Oryctolagus cuniculus.
Test [17] deals with Mesenchymal stem cell. Described as §3. It counts as functional. The settings on record: Oryctolagus cuniculus.
Test [18] relates to Mesenchymal stem cell. Described as §4. It is filed as functional. The conditions noted are these: Oryctolagus cuniculus.
Test [19] deals with Mesenchymal stem cell. Description: Increase in cell proliferation of rabbit mesenchymal stem cells incubated for 14 days by MTT assay. It is filed as functional. The conditions noted are these: Oryctolagus cuniculus.

On to `CC(C)C[C@H](NC(=O)[C@@H](NC(=O)[C@H](CCCNC(=N)N)NC(=O)CNC(=O)[C@H](CCC(N)=O)NC(=O)[C@H](CCCNC(=N)N)NC(=O)[C@H](CCCCN)NC(=O)[C@H](CC(C)C)NC(=O)[C@H](C)N)[C@@H](C)O)C(=O)O` (H-ALKRQGRTL-OH), for which the outcome in test [1] and in test [2] was inactive.

On to `CC(C)C[C@H](NC(=O)[C@H](C)N)C(=O)N[C@@H](CCCCN)C(=O)N[C@@H](CCCNC(=N)N)C(=O)N[C@@H](CCC(N)=O)C(=O)NCC(=O)N[C@@H](CCCNC(=N)N)C(=O)N[C@H](C(=O)N[C@@H](CC(C)C)C(=O)N[C@@H](CS)C(=O)O)[C@@H](C)O` (H-ALKRQGRTLC-OH), for which the result in test [1] and in test [2] was inactive.

`CC(C)C[C@H](NC(=O)[C@@H](NC(=O)[C@H](CCCNC(=N)N)NC(=O)CNC(=O)[C@H](CCC(N)=O)NC(=O)[C@H](CCCNC(=N)N)NC(=O)[C@H](CCCCN)NC(=O)[C@H](CC(C)C)NC(=O)[C@H](C)NC(=O)[C@@H](N)CS)[C@@H](C)O)C(=O)O` (H-CALKRQGRTL-OH): the outcome in test [1] and in [2] was inactive.

With `N[C@@H](CS)C(=O)N[C@@H](Cc1ccc(O)cc1)C(=O)NCC(=O)N[C@@H](Cc1ccccc1)C(=O)NCC(=O)NCC(=O)O` (H-CYGFGG-OH), the outcome in test [3], in test [5], in [8] and in test [13] was inactive. In addition, the result in test [1], in test [4], in test [6] and in test [10] was Active. In addition, the “fold change (FC)” value in [7] was 60; in test [9] it was 1.7; in [11], 2.6; in [12] it was 1.6; in test [14], 49.

`N[C@@H](Cc1ccc(O)cc1)C(=O)NCC(=O)N[C@@H](Cc1ccccc1)C(=O)NCC(=O)NCC(=O)O` (H-YGFGG-OH): the result in test [3], in test [1], in test [5], in [15], in test [8] and in test [16] was inactive. The result in [17], in [13], in [18] and in test [2] was inactive. Moreover, the result in test [19] was Active.

As to `N[C@@H](Cc1ccc(O)cc1)C(=O)NCC(=O)N[C@@H](Cc1ccccc1)C(=O)NCC(=O)NCC(=O)N[C@@H](CS)C(=O)O` (H-YGFGGC-OH), the result in [1] and in test [2] was inactive.
